The text below walks through data of patent US20130303532A1, “IMIDAZOPYRAZINES FOR USE AS MPS-1 AND TKK INHIBITORS IN THE TREATMENT HYPERPROLIFERATIVE DISORDERS” (BAYER INTELLECTUAL PROPERTY GmbH, priority 2010, published 2013).

One test addresses T1, human kinase Mps-1 (Homo sapiens, UniProt P33981).
T1 construct: N-terminally GST-tagged human full length recombinant Mps-1 kinase; GST (N); purchased Invitrogen, Karslruhe, Germany PV4071
T1 sequence (P33981 1-857): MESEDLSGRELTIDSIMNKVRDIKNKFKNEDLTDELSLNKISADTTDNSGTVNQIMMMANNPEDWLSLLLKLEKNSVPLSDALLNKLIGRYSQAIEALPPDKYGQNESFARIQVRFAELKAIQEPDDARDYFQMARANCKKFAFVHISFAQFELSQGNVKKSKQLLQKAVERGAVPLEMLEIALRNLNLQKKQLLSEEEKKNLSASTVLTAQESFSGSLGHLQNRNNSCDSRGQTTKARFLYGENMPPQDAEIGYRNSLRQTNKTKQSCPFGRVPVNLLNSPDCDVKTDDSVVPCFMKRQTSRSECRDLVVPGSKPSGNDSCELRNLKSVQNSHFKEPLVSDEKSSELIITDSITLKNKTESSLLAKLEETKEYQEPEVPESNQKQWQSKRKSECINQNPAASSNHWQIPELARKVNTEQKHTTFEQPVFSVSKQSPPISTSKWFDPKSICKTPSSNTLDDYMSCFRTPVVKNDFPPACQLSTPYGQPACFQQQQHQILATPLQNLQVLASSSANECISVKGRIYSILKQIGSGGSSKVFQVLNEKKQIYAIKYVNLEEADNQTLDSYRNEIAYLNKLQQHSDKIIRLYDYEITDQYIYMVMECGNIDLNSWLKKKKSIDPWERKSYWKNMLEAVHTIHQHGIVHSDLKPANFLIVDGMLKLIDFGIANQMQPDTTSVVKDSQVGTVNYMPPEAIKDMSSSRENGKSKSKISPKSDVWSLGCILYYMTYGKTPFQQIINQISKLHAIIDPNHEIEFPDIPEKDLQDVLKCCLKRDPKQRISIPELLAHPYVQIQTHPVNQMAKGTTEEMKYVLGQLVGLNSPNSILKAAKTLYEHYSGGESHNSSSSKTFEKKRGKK
Kind of test: Mps-1 kinase assay (TR-FRET). In kind it is biochemical. To be noted: Mps1 IC50 [nM], N-terminally GST-tagged human full length recombinant Mps-1; 10 μM ATP; 1 μM biotinylated peptide substrate; 60 min at 22° C.
In the case of `Cc1cc(-c2cnc3c(NCCO)nccn23)ccc1C(=O)NC1CC1` [Example 7-91, N-cyclopropyl-4-{8-[(2-hydroxyethyl)amino]imi-dazo[1,2-a]pyrazin-3-yl}-2-methylbenzamide], the IC50 was found to be 363 nM.

Consider `Cn1cc(CNc2nccn3c(-c4ccc(C(=O)NC5CC5)c(Cl)c4)cnc23)cn1` [Example 7-62, 2-chloro-N-cyclopropyl-4-(8-{[(1-methyl-1H-pyrazol-4-yl)methyl]amino}imi-dazo[1,2-a]pyrazin-3-yl)benzamide], for which the IC50 amounted to 308 nM.

For the compound `COc1cc(C(=O)NC2CC2)ccc1-c1cnc2c(NCC(C)C)nccn12` [Example 7-128, N-cyclopropyl-3-methoxy-4-{8-[(2-methylpropyl)amino]imi-dazo[1,2-a]pyrazin-3-yl}benzamide], the half-maximal inhibitory concentration (IC50) stood at 19.3 nM.

As to `COCCNc1nccn2c(-c3ccc(C(=O)NC4CC4)c(Cl)c3)cnc12` [Example 7-36, 2-chloro-N-cyclopropyl-4-{8-[(2-methoxyethyl)amino]imi-dazo[1,2-a]pyrazin-3-yl}benzamide], the IC50 is 593 nM.

As for `O=C(NC1CC1)c1ccc(-c2cnc3c(NCCCO)nccn23)cc1O` [Example 7-78, N-cyclopropyl-2-hydroxy-4-{8-[(3-hydroxypropyl)amino]imi-dazo[1,2-a]pyrazin-3-yl}benzamide], the IC50 was determined as 93.1 nM.

With `Cc1cc(-c2cnc3c(NCC4CCCO4)nccn23)ccc1C(=O)NC1CC1` (stereo not drawn) [Example 7-94, N-cyclopropyl-2-methyl-4-{8-[(tetrahydrofuran-2-ylmethyl)amino]imi-dazo[1,2-a]pyrazin-3-yl}benzamide], the IC50 was determined as 80.8 nM.

As for `Cc1cccc(CNc2nccn3c(-c4ccc(C(=O)NC5CC5)cc4)cnc23)c1` [Example 7-29, N-cyclopropyl-4-{8-[(3-methylbenzyl)amino]imi-dazo[1,2-a]pyrazin-3-yl}benzamide], the IC50 turned out to be 100 nM.

Take `O=C(NC1CC1)c1ccc(-c2cnc3c(NCC(O)C(F)(F)F)nccn23)cc1Cl` (stereo not drawn) [Example 7-55, 2-chloro-N-cyclopropyl-4-{8-[(3,3,3-trifluoro-2-hydroxypropyl)amino]imi-dazo[1,2-a]pyrazin-3-yl}benzamide]: the IC50 was 175 nM.

In the case of `CC(C)CNc1nccn2c(-c3ccc(C(=O)NC4CC4)c(Cl)c3)cnc12` [Example 7-51, 2-chloro-N-cyclopropyl-4-{8-[(2-methylpropyl)amino]imi-dazo[1,2-a]pyrazin-3-yl}benzamide], the IC50 was determined as 15.7 nM.

For `O=C(NC1CC1)c1ccc(-c2cnc3c(NCC(O)COc4ccccc4)nccn23)cc1` (stereo not drawn) [Example 7-17, N-cyclopropyl-4-{8-[(2-hydroxy-3-phenoxypropyl)amino]imi-dazo[1,2-a]pyrazin-3-yl}benzamide], the IC50 came to 412 nM.

`NS(=O)(=O)CCNc1nccn2c(-c3ccc(C(=O)NC4CC4)cc3)cnc12` [Example 7-32, N-cyclopropyl-4-{8-[(2-sulfamoylethyl)amino]imi-dazo[1,2-a]pyrazin-3-yl}benzamide]: the IC50 was 57.2 nM.

As for `O=C(NC1CC1)c1ccc(-c2cnc3c(NCc4ccco4)nccn23)cc1O` [Example 7-79, N-cyclopropyl-4-{8-[(furan-2-ylmethyl)amino]imi-dazo[1,2-a]pyrazin-3-yl}-2-hydroxybenzamide], the IC50 worked out at 77.3 nM.

With `Cc1cc(-c2cnc3c(NCc4ccco4)nccn23)ccc1C(=O)NC1CC1` [Example 7-110, N-cyclopropyl-4-{8-[(furan-2-ylmethyl)amino]imi-dazo[1,2-a]pyrazin-3-yl}-2-methylbenzamide], the 50% inhibitory concentration (IC50) is 28.1 nM.

Consider `CC(C)(O)CNc1nccn2c(-c3ccc(C(=O)NC4CC4)c(O)c3)cnc12` [Example 7-87, N-cyclopropyl-2-hydroxy-4-{8-[(2-hydroxy-2-methylpropyl)amino]imi-dazo[1,2-a]pyrazin-3-yl}benzamide], for which the IC50 was found to be 160 nM.

As to `Cc1cc(-c2cnc3c(NCc4ccn(C)n4)nccn23)ccc1C(=O)NC1CC1` [Example 7-119, N-cyclopropyl-2-methyl-4-(8-{[(1-methyl-1H-pyrazol-3-yl)methyl]amino}imi-dazo[1,2-a]pyrazin-3-yl)benzamide], the IC50 was 298 nM.

Consider `Cc1cc(-c2cnc3c(NCC(F)(F)F)nccn23)ccc1C(=O)NC1CC1` [Example 7-100], for which the IC50 came to 217 nM.

As to `NC(=O)CCNc1nccn2c(-c3ccc(C(=O)NC4CC4)c(Cl)c3)cnc12` [Example 7-54, 4-{8-[(3-amino-3-oxopropyl)amino]imi-dazo[1,2-a]pyrazin-3-yl}-2-chloro-N-cyclopropylbenzamide], the IC50 turned out to be 4870 nM.

For the compound `CC(C)(C)CNc1nccn2c(-c3ccc(C(=O)NC4CC4)cc3)cnc12` [Example 7-20, N-cyclopropyl-4-{8-[(2,2-dimethylpropyl)amino]imi-dazo[1,2-a]pyrazin-3-yl}benzamide], the IC50 came to 30.2 nM.

For the compound `Cc1ccc(CNc2nccn3c(-c4ccc(C(=O)NC5CC5)cc4)cnc23)cc1` [Example 7-22, N-cyclopropyl-4-{8-[(4-methylbenzyl)amino]imi-dazo[1,2-a]pyrazin-3-yl}benzamide], the IC50 was found to be 21 nM.

For `O=C(NC1CC1)c1ccc(-c2cnc3c(NCC4CCCCO4)nccn23)cc1O` (stereo not drawn) [Example 7-89, N-cyclopropyl-2-hydroxy-4-{8-[(tetrahydro-2H-pyran-2-ylmethyl)amino]imi-dazo[1,2-a]pyrazin-3-yl}benzamide], the IC50 was 247 nM.

In the case of `O=C(NC1CC1)c1ccc(-c2cnc3c(NCc4ccc(F)cc4)nccn23)cc1O` [Example 7-74, N-cyclopropyl-4-{8-[(4-fluorobenzyl)amino]imi-dazo[1,2-a]pyrazin-3-yl}-2-hydroxybenzamide], the IC50 came to 98.2 nM.

As to `Cc1ccccc1CNc1nccn2c(-c3ccc(C(=O)NC4CC4)cc3)cnc12` [Example 7-15, N-cyclopropyl-4-{8-[(2-methylbenzyl)amino]imi-dazo[1,2-a]pyrazin-3-yl}benzamide], the IC50 was 88.8 nM.

Still in this test, the particulars now being: N-terminally GST-tagged human full length recombinant Mps-1; 10 μM ATP; 1 μM biotinylated peptide substrate; 60 min at 22° C.; read-out: Mps1 IC50.
For the compound `O=C(NC1CC1)c1ccc(-c2cnc3c(NCCCO)nccn23)cc1` [Example 3-1, N-cyclopropyl-4-[8-[(3-hydroxypropyl)amino]imidazo[1,2-a]pyrazin-3-yl]benzamide], the concentration for half-maximal inhibition (IC50) amounted to 54.5 nM.

`CCCNc1nccn2c(-c3ccc(C(=O)NC4CC4)c(C)c3)cnc12` [Example 7-90, N-cyclopropyl-2-methyl-4-[8-(propylamino)imidazo[1,2-a]pyrazin-3-yl]benzamide]: the IC50 was 29.7 nM.

In the case of `Cc1cc(-c2cnc3c(NCCCS(C)(=O)=O)nccn23)ccc1C(=O)NC1CC1` [Example 5-1, N-cyclopropyl-2-methyl-4-(8-{[3-(methylsulfonyl)propyl]amino}imidazo[1,2-a]pyrazin-3-yl)benzamide], the IC50 is 278 nM.

As to `O=C(NC1CC1)c1ccc(-c2cnc3c(NCCc4cccs4)nccn23)cc1` [Example 7-21, N-cyclopropyl-4-(8-{[2-(thiophen-2-yl)ethyl]ami-no}imidazo[1,2-a]pyrazin-3-yl)benzamide], the IC50 was 42.3 nM.

Consider `COc1cc(C(=O)NC2CC2)ccc1-c1cnc2c(NCCCN)nccn12` [Example 3-4, 4-{8-[(3-Aminopropyl)amino]imidazo[1,2-a]pyrazin-3-yl}-N-cyclopropyl-3-methoxybenzamide], for which the IC50 was found to be 421 nM.

As for `CCCCNc1nccn2c(-c3ccc(C(=O)NC4CC4)cc3)cnc12` [Example 4-7, 4-[8-(butylamino)imidazo[1,2-a]pyrazin-3-yl]-N-cyclopropylbenzamide], the IC50 is 37.2 nM.

For `CCCCCNc1nccn2c(-c3ccc(C(=O)NC4CC4)cc3)cnc12` [Example 7-1, N-cyclopropyl-4-[8-(pentylamino)imidazo[1,2-a]pyrazin-3-yl]benzamide], the IC50 was 22.5 nM.

For the compound `O=C(NC1CC1)c1ccc(-c2cnc3c(NCc4cccnc4)nccn23)cc1Cl` [Example 7-48, 2-chloro-N-cyclopropyl-4-{8-[(pyridin-3-ylmethyl)amino]imidazo[1,2-a]pyrazin-3-yl}benzamide], the IC50 is 513 nM.

As to `CC(C)CNc1nccn2c(-c3ccc(C(=O)NC4CC4)c(Cl)c3)cnc12` [Example 6-1, 2-chloro-N-cyclopropyl-4-{8-[(2-methylpropyl)amino]imidazo[1,2-a]pyrazin-3-yl}benzamide], the IC50 stood at 28 nM.

Consider `O=C(NC1CC1)c1ccc(-c2cnc3c(NCc4ccncc4)nccn23)cc1Cl` [Example 7-49, 2-chloro-N-cyclopropyl-4-{8-[(pyridin-4-ylmethyl)amino]imidazo[1,2-a]pyrazin-3-yl}benzamide], for which the IC50 worked out at 387 nM.

`O=C(NC1CC1)c1ccc(-c2cnc3c(NCc4ccccc4)nccn23)cc1Cl` [Example 7-40, 4-[8-(benzylamino)imidazo[1,2-a]pyrazin-3-yl]-2-chloro-N-cyclopropylbenzamide]: the IC50 came out at 64.6 nM.
